From PMC4977651, “Molecular features of biguanides required for targeting of mitochondrial respiratory complex I and activation of AMP-kinase” (BMC Biology, 2016)
Values joined by “and” are separate entries in the source; they are usually repeats but may differ in a detail not shown here. Identical values can stand only once.

Tests used:
HepG2 cells = assay: Rotenone-sensitive oxygen consumption rate in intact HepG2 cells; format: cell-based, human
Method: (§1) 143B (CRL-8303 from ATCC), HepG2 (85011430 from The Health Protection Agency), and MDBK (CCL-22 from ATCC) cells were grown on Dulbecco’s modified Eagle’s medium (DMEM) supplemented with 10 % fetal bovine serum (FBS, Thermo Fisher Scientific) at 37 °C in 5 % CO2. All cells were confirmed as negative for mycoplasma.
(§2) Oxygen consumption rates (OCRs) were measured using a Seahorse XF96 extracellular flux analyzer at 37 °C. For intact cell measurements, 1.4 × 10^4 143B, HepG2, or MDBK cells were plated (per well) in DMEM containing 10 % FBS into Seahorse Bioscience Inc. XF96 plates and incubated for ~12 h at 37 °C in 5 % CO2. Then, the medium was exchanged for assay buffer containing DMEM, 4.5 g L^−1 glucose, 1 mM pyruvate, 32 mM NaCl, 2 mM GlutaMAX, 15 mg L^−1 phenol red, and 20 mM HEPES (pH 7.4 at 37 °C) and the cells placed in a CO2-free incubator at 37 °C for 30 min. Basal oxygen consumption rates were established before the addition of biguanides at one-tenth of their IC50 (IC50/10), and followed for ~ 6 h before the addition of rotenone (2 μM).
(§3) Rotenone-sensitive OCRs were calculated by subtracting the rotenone-insensitive rates (determined at the end of the experiment). OCRs were normalized by dividing by the OCR recorded immediately prior to the addition of biguanide. For rate of uptake calculations, the OCRs at time points after biguanide addition were divided by the OCRs at the same time points in control experiments. Data from wells with failed port injections were excluded from the analyses. The respiratory control ratio (RCR) values (state III versus state IV respiration) were ~11 and ~6 for permeabilized MDBK and 143B cells, respectively.

permeabilized MDBK cells = assay: ADP-stimulated rotenone-sensitive OCR in permeabilized MDBK cells; format: cell-based, Bos taurus; parameters: rotenone sensitive OCR after ADP stimulation, average / rotenone sensitive OCR after ADP stimulation: unit not given here; details: MDBK permeabilised cells; for rotenone sensitive OCR after ADP stimulation, % of control, average / rotenone sensitive OCR after ADP stimulation, average: average of replicates
Method: For permeabilized cell experiments, cells were seeded into XF96 plates at 0.9–1.1 × 10^4 per well and incubated for 48 h at 37 °C in 5 % CO2. Then, the growth medium was exchanged for assay buffer containing 3 nM plasma membrane permeabilizer ‘PMP’ (Seahorse Biosciences Inc.), 10 mM glutamate, 10 mM malate, 220 mM mannitol, 70 mM sucrose, 10 mM KH2PO4, 5 mM MgCl2, 1 mM EGTA, 0.2 % fatty acid-free bovine serum albumin (BSA), and 2 mM HEPES (pH 7.4 at 37 °C). […] The biguanides were allowed to accumulate for 30 min, then respiration was […] by the addition of 4 mM ADP. Rotenone was added (2 μM) at the end of the experiment.
as §3

AMPK-α (phospho-Thr172) = assay: AMPK activation, western blot of phospho-AMPK-α in MDBK cells; format: cell-based, Bos taurus; details: for p-alpha: band intensity
Method: MDBK cells were seeded at 1 × 10^6 cells per 6 cm dish in DMEM containing 10 % FBS. […] After 18 h cells were harvested by a rapid lysis procedure: cells were rinsed with PBS, then lysed using ice-cold buffer containing 50 mM HEPES, 1 mM EDTA, 10 % glycerol, 50 mM NaF, 5 mM sodium pyrophosphate, 1 % Triton-X100, 1 mM dithiothreitol (DTT), and a protease inhibitor cocktail (Roche). The cell lysate was centrifuged at 14,000 × g for 20 min at 4 °C and the protein concentration of the supernatant determined by bicinchoninic acid assay. The lysate was analyzed using Novex 3–12 % bis-Tris gels run in 3-(N-morpholino)propanesulfonic acid (MOPS) buffer (20 μg of protein per lane) followed by transfer to low fluorescence polyvinylidene fluoride membranes by wet transfer. Primary rabbit antibodies for AMPK-β (57C12), AMPK-α (phospho-Thr172) (40H9), and acetyl-coA carboxylase (phospho-Ser79) (Cell Signaling Technology) were incubated overnight with the membrane (1:1000 dilution) in Odyssey blocking buffer at 4 °C. A fluorescent secondary antibody was used (IRDYE800CW from LI-COR Biosciences, 1:20,000 dilution) with a LI-COR Odyssey imaging system.

143B cells = assay: Rotenone-sensitive oxygen consumption rate in intact 143B cells; format: cell-based, human
Method: as §1, §2, §3

MDBK cells = assay: Rotenone-sensitive oxygen consumption rate in intact MDBK cells; format: cell-based, Bos taurus; parameters: key to rotenone sensitive OCR after 40 mins of biguanide exposure / rotenone sensitive OCR after 40 mins of biguanide exposure, average: % of OCR recorded immediately before biguanide addition
Method: as §1, §2, §3

[1] = individual replicates, biguanide at IC50/5
[2] = MDBK intact cells, average of replicates, biguanide at IC50/10
[3] = MDBK intact cells, individual replicates, biguanide at IC50/10

NC(N)=NC(N)=NCCc1ccc(Cl)cc1 [compound 1, 2-[2-(4-chlorophenyl)ethyl]-1-(diaminomethylidene)guanidine]
rotenone sensitive OCR after 6 hours of biguanide exposure, % control, average (HepG2 cells; HEPG2 cells, biguanide at IC50/10): 4.45 % control
rotenone sensitive OCR after 6 hours of biguanide exposure, average (HepG2 cells; HEPG2 cells, biguanide at IC50/10, OCR normalized to OCR immediately prior to biguanide addition): 4.59
inhibition of rotenone-sensitive respiration (in words) (HepG2 cells; intact HepG2 cells, biguanide at IC50/10, monitored for 6 h): inhibit respiration
rotenone sensitive OCR after ADP stimulation, % of control, average (permeabilized MDBK cells): 20.60 % of control
rotenone sensitive OCR after ADP stimulation, average (permeabilized MDBK cells): 58.06
rotenone sensitive OCR after ADP stimulation, % of control, average (permeabilized MDBK cells; biguanide at IC50/5): 20.60 % of control
rotenone sensitive OCR after ADP stimulation, average (permeabilized MDBK cells; biguanide at IC50/5): 58.06
rotenone sensitive OCR after ADP stimulation (permeabilized MDBK cells; [1]): 88.38 and 76.77 and 21.79 and 44.14 and 38.29 and 53.63 and 83.42
rotenone sensitive OCR after ADP stimulation, % of control (permeabilized MDBK cells; [1]): 31.36 % of control and 27.24 % of control and 7.73 % of control and 15.66 % of control and 13.59 % of control and 19.03 % of control and 29.60 % of control
AMPK activation (in words) (AMPK-α (phospho-Thr172); 18-h treatment, IC50/10 biguanide concentrations): slightly lower activation
p-alpha, average normalised to control (AMPK-α (phospho-Thr172); Averages of experiments 1-3, 18 hours): 5.54
p-alpha / AMPK beta (AMPK-α (phospho-Thr172); Experiment 1, 18 hours): 0.63
p-alpha / AMPK beta normalised to control (AMPK-α (phospho-Thr172); Experiment 1, 18 hours): 5.05
p-alpha (AMPK-α (phospho-Thr172); Experiment 1, 18 hours): 288
p-alpha / AMPK beta (AMPK-α (phospho-Thr172); Experiment 2, 18 hours): 1.08
p-alpha / AMPK beta normalised to control (AMPK-α (phospho-Thr172); Experiment 2, 18 hours): 7.41
p-alpha (AMPK-α (phospho-Thr172); Experiment 2, 18 hours): 388
p-alpha / AMPK beta (AMPK-α (phospho-Thr172); Experiment 3, 18 hours): 0.86
p-alpha / AMPK beta normalised to control (AMPK-α (phospho-Thr172); Experiment 3, 18 hours): 4.15
p-alpha (AMPK-α (phospho-Thr172); Experiment 3, 18 hours): 220
rotenone sensitive OCR after 6 hours of biguanide exposure, % control, average (143B cells; 143B cells, biguanide at IC50/10): 3.06 % control
rotenone sensitive OCR after 6 hours of biguanide exposure, average (143B cells; 143B cells, biguanide at IC50/10, OCR normalized to OCR immediately prior to biguanide addition): 3.59
inhibition of rotenone-sensitive respiration (in words) (143B cells; intact 143B cells, biguanide at IC50/10, monitored for 6 h): inhibit respiration
rotenone sensitive OCR after 6 hours of biguanide exposure, % control, average (MDBK cells; MDBK cells, biguanide at IC50/10): 64.04 % control
rotenone sensitive OCR after 6 hours of biguanide exposure, average (MDBK cells; MDBK cells, biguanide at IC50/10, OCR normalized to OCR immediately prior to biguanide addition): 64.24
maximal rate of accumulation (estimated matrix concentration) (MDBK cells; MDBK cells, biguanide at IC50/10 in the extracellular medium (phenformin 34 μM; compound 1 37 μM), estimated from OCR inhibition): 1 µM/min
rotenone sensitive OCR after 40 mins of biguanide exposure, % control, average (MDBK cells; [2]): 96.88 % control
rotenone sensitive OCR after 40 mins of biguanide exposure, average (MDBK cells; [2]): 98.58
rotenone sensitive OCR after 40 mins of biguanide exposure (MDBK cells; [3]): 98.09 and 97.70 and 99.35 (3×) and 96.88 and 99.34
rotenone sensitive OCR after 40 mins of biguanide exposure, % control (MDBK cells; [3]): 96.40 % control and 96.02 % control and 97.64 % control (3×) and 95.21 % control and 97.63 % control
